Measured values published in patent US8492310B2, “Herbicidal compositions containing benzoylpyrazole compounds” (priority 2008, dated 2013).
Read-outs that look alike come from different tables or passages of the source.

Columns and labels:
Type in all cases: in vivo
[1] = tested on: crabgrass (Digitaria sanguinalis L.); assay: Foliar treatment pot test, visual growth inhibition rate, crabgrass (DS)
Description: (§1) When the herbicidal activity in a case where two active ingredients are combined, is larger than the simple sum of the respective herbicidal activities of the two active ingredients (the expected activity), it is called a synergistic effect. The activity expected by the combination of two active ingredients can be calculated as follows (Colby S. R., “Weed”, vol. 15, p. 20-22, 1967). E=α+β−(α×β÷100) where
(§2) Upland field soil was put into a 1/1,000,000 hectare pot, and seeds of various plants (barnyardgrass (Echinochloa crus-qalli L.), crabgrass (Digitaria sanguinalis L.), giant foxtail (Setaria faberi Herrm.), velvetleaf (Abutilon theophrasti MEDIC.) and prickly sida (Sida spinosa L.)) were sown. When the respective plants reached predetermined leaf stage, herbicidal compositions in predetermined amounts were diluted with water in an amount corresponding to 300 L/ha and applied for foliar treatment by a small sprayer.
(§3) Further, in accordance with the above Colby's formula, the growth inhibition rate (calculated value) was calculated. In Tables, with respect to the compound Q, Compound Nos. in Table 1 are described, and with respect to other herbicidal compounds, common names are described. Further, in Tables, barnyardgrass is represented by “EC”, crabgrass by “DS”, giant foxtail by “SF”, velvetleaf by “AT”, and prickly sida by “SS”.

[2] = tested on: velvetleaf (Abutilon theophrasti MEDIC.); assay: Foliar treatment pot test, visual growth inhibition rate, velvetleaf (AT)
Description: as §1, §2, §3

[3] = tested on: prickly sida (Sida spinosa L.); assay: Foliar treatment pot test, visual growth inhibition rate, prickly sida (SS); details: for inhibition at 15 g/ha: 1.5-2.4 leaf stage
Description: as §1, §2, §3

[4] = tested on: barnyardgrass (Echinochloa crus-qalli L.); assay: Foliar treatment pot test, visual growth inhibition rate, barnyardgrass (EC); details: 4.0-5.0 leaf stage, read-out: Growth inhibition rate (%) of EC Measured value
Description: as §1, §2, §3

[5] = Digitaria sanguinalis, foliar, 552 h, 4.5-5.3 leaf stage, 23 DAT, read-out: Growth inhibition rate (%) of DS Measured value
[6] = Abutilon theophrasti, foliar, 552 h, 3.0-4.2 leaf stage, 23 DAT, read-out: Growth inhibition rate (%) of AT Measured value
[7] = Digitaria sanguinalis, foliar, 480 h, 4.5-5.2 leaf stage, 20 DAT, read-out: Growth inhibition rate (%) of DS Measured value
[8] = Abutilon theophrasti, foliar, 480 h, 4.2-4.3 leaf stage, 20 DAT, read-out: Growth inhibition rate (%) of AT Measured value
[9] = Digitaria sanguinalis, foliar, 480 h, 3.7-4.0 leaf stage, 20 DAT, read-out: Growth inhibition rate (%) of DS Measured value
[10] = Abutilon theophrasti, foliar, 480 h, 4.0-4.2 leaf stage, 20 DAT, read-out: Growth inhibition rate (%) of AT Measured value
[11] = Abutilon theophrasti, foliar, 528 h, 3.3-3.8 leaf stage, 22 DAT, read-out: Growth inhibition rate (%) of AT Measured value

## CCCCCCCC(=O)Oc1c(Br)cc(C#N)cc1Br [Bromoxynil-octanoate, bromoxynil-octanoate]
[1]; Digitaria sanguinalis, foliar, 336 h, 4.0-5.0 leaf stage, 14 DAT, read-out: Growth inhibition rate (%) of DS Measured value
  inhibition at 63 g/ha: 0%
[1]; Digitaria sanguinalis, foliar, 504 h, 4.0-5.1 leaf stage, 21 DAT, read-out: Growth inhibition rate (%) of DS Measured value
  inhibition at 63 g/ha: 0%
[1]; Digitaria sanguinalis, foliar, 528 h, 3.1-4.0 leaf stage, 22 DAT, 77 g/ha, read-out: Growth inhibition rate (%) of DS Measured value
  inhibition at 77 g/ha: 0%
[1]; Digitaria sanguinalis, foliar, 552 h, 4.5-5.3 leaf stage, 23 DAT, 30 g/ha, read-out: Growth inhibition rate (%) of DS Measured value
  inhibition at 30 g/ha: 25%
[1]; [5]
  inhibition at 60 g/ha: 10%
  inhibition at 120 g/ha: 45%
[2]; Abutilon theophrasti, foliar, 504 h, 3.0-3.5 leaf stage, 21 DAT, 63 g/ha, read-out: Growth inhibition rate (%) of AT Measured value
  inhibition at 63 g/ha: 10%
[2]; Abutilon theophrasti, foliar, 528 h, 4.0-4.3 leaf stage, 22 DAT, read-out: Growth inhibition rate (%) of AT Measured value
  inhibition at 100 g/ha: 25%
[2]; [6]
  inhibition at 30 g/ha: 0%
  inhibition at 60 g/ha: 0%
  inhibition at 120 g/ha: 0%
[2]; Abutilon theophrasti, foliar, 576 h, 3.2-4.1 leaf stage, 24 DAT, 200 g/ha, read-out: Growth inhibition rate (%) of AT Measured value
  inhibition at 200 g/ha: 100%
[3]; Sida spinosa, foliar, 528 h, 3.0-3.3 leaf stage, 22 DAT, 25 g/ha, read-out: Growth inhibition rate (%) of SS Measured value
  inhibition at 25 g/ha: 40%
[3]; Sida spinosa, foliar, 528 h, 3.0-3.3 leaf stage, 22 DAT, read-out: Growth inhibition rate (%) of SS Measured value
  inhibition at 50 g/ha: 50%
[3]; Sida spinosa, foliar, 528 h, 3.0-3.3 leaf stage, 22 DAT, 100 g/ha, read-out: Growth inhibition rate (%) of SS Measured value
  inhibition at 100 g/ha: 50%

## COc1c(Cl)ccc(Cl)c1C(=O)O [Dicamba, dicamba]
[4]; 336 h, 14 DAT, 200 g/ha
  inhibition at 200 g/ha: 0%
[1]; Digitaria sanguinalis, foliar, 312 h, 4.4-5.0 leaf stage, 13 DAT, read-out: Growth inhibition rate (%) of DS Measured value
  inhibition at 100 g/ha: 0%
[1]; [7]
  inhibition at 25 g/ha: 0%
  inhibition at 50 g/ha: 0%
  inhibition at 100 g/ha: 0%
[1]; Digitaria sanguinalis, foliar, 504 h, 5.0-5.5 leaf stage, 21 DAT, 200 g/ha, read-out: Growth inhibition rate (%) of DS Measured value
  inhibition at 200 g/ha: 0%
[1]; [5]
  inhibition at 60 g/ha: 55%
  inhibition at 120 g/ha: 75%
[2]; Abutilon theophrasti, foliar, 312 h, 3.3-4.2 leaf stage, 13 DAT, read-out: Growth inhibition rate (%) of AT Measured value
  inhibition at 100 g/ha: 35%
[2]; [8]
  inhibition at 25 g/ha: 25%
  inhibition at 50 g/ha: 35%
  inhibition at 100 g/ha: 43%
[2]; Abutilon theophrasti, foliar, 504 h, 3.5-4.3 leaf stage, 21 DAT, read-out: Growth inhibition rate (%) of AT Measured value
  inhibition at 100 g/ha: 55%
[2]; [6]
  inhibition at 60 g/ha: 0%
  inhibition at 120 g/ha: 0%

## CS(=O)(=O)c1ccc(C(=O)C2C(=O)CCCC2=O)c([N+](=O)[O-])c1 [Mesotrione]
[4]; 504 h, 21 DAT, 15 g/ha
  inhibition at 15 g/ha: 5%
[1]; [9]
  inhibition at 25 g/ha: 55%
  inhibition at 50 g/ha: 83%
[1]; Digitaria sanguinalis, foliar, 480 h, 5.1-5.2 leaf stage, 20 DAT, 12.5 g/ha, read-out: Growth inhibition rate (%) of DS Measured value
  inhibition at 12.5 g/ha: 80%
[2]; [10]
  inhibition at 25 g/ha: 23%
  inhibition at 50 g/ha: 35%
[2]; Abutilon theophrasti, foliar, 480 h, 4.1-4.2 leaf stage, 20 DAT, 12.5 g/ha, read-out: Growth inhibition rate (%) of AT Measured value
  inhibition at 12.5 g/ha: 75%
[2]; Abutilon theophrasti, foliar, 480 h, 4.1-4.2 leaf stage, 20 DAT, read-out: Growth inhibition rate (%) of AT Measured value
  inhibition at 25 g/ha: 94%
[2]; Abutilon theophrasti, foliar, 576 h, 3.2-4.1 leaf stage, 24 DAT, read-out: Growth inhibition rate (%) of AT Measured value
  inhibition at 15 g/ha: 88%

## COc1cc(OC)nc(NC(=O)NS(=O)(=O)c2ncccc2C(=O)N(C)C)n1 [Nicosulfuron, nicosulfuron]
[1]; Digitaria sanguinalis, foliar, 336 h, 3.5-4.3 leaf stage, 14 DAT, 5 g/ha, read-out: Growth inhibition rate (%) of DS Measured value
  inhibition at 5 g/ha: 15%
[1]; Digitaria sanguinalis, foliar, 504 h, 3.5 to 4.3 leaf stage, 21 DAT, 10 g/ha, read-out: Growth inhibition rate (%) of DS Measured value
  inhibition at 10 g/ha: 30%
[1]; Digitaria sanguinalis, foliar, 504 h, 4.5-5.1 leaf stage, 21 DAT, 20 g/ha, read-out: Growth inhibition rate (%) of DS Measured value
  inhibition at 20 g/ha: 50%
[1]; Digitaria sanguinalis, foliar, 504 h, 4.5-5.1 leaf stage, 21 DAT, 80 g/ha, read-out: Growth inhibition rate (%) of DS Measured value
  inhibition at 80 g/ha: 94%
[2]; Abutilon theophrasti, foliar, 480 h, 3.1-3.4 leaf stage, 20 DAT, 5 g/ha, read-out: Growth inhibition rate (%) of AT Measured value
  inhibition at 5 g/ha: 10%
[2]; Abutilon theophrasti, foliar, 504 h, 3.8-4.4 leaf stage, 21 DAT, read-out: Growth inhibition rate (%) of AT Measured value
  inhibition at 7 g/ha: 30%
[2]; Abutilon theophrasti, foliar, 504 h, 4.0-4.5 leaf stage, 21 DAT, 40 g/ha, read-out: Growth inhibition rate (%) of AT Measured value
  inhibition at 40 g/ha: 65%
[2]; Abutilon theophrasti, foliar, 504 h, 4.0-4.5 leaf stage, 21 DAT, read-out: Growth inhibition rate (%) of AT Measured value
  inhibition at 60 g/ha: 70%
[2]; Abutilon theophrasti, foliar, 504 h, 4.0-4.5 leaf stage, 21 DAT, 80 g/ha, read-out: Growth inhibition rate (%) of AT Measured value
  inhibition at 80 g/ha: 83%
[2]; [11]
  inhibition at 7 g/ha: 45%
  inhibition at 15 g/ha: 60%
  inhibition at 30 g/ha: 70%
[2]; Abutilon theophrasti, foliar, 528 h, 4.0-4.4 leaf stage, 22 DAT, 10 g/ha, read-out: Growth inhibition rate (%) of AT Measured value
  inhibition at 10 g/ha: 40%
[3]; Sida spinosa, foliar, 480 h, 20 DAT, read-out: Growth inhibition rate (%) of SS Measured value
  inhibition at 15 g/ha: 45%
[3]; Sida spinosa, foliar, 504 h, 21 DAT, read-out: Growth inhibition rate (%) of SS Measured value
  inhibition at 15 g/ha: 45%
[3]; Sida spinosa, foliar, 504 h, 2.1 to 3.1 leaf stage, 21 DAT, 2.5 g/ha, read-out: Growth inhibition rate (%) of SS Measured value
  inhibition at […]: 0%
[3]; Sida spinosa, foliar, 504 h, 2.1 to 3.1 leaf stage, 21 DAT, 5 g/ha, read-out: Growth inhibition rate (%) of SS Measured value
  inhibition at 5 g/ha: 0%
[3]; Sida spinosa, foliar, 504 h, 2.1 to 3.1 leaf stage, 21 DAT, 10 g/ha, read-out: Growth inhibition rate (%) of SS Measured value
  inhibition at 10 g/ha: 10%
[3]; Sida spinosa, foliar, 504 h, 2.1 to 3.1 leaf stage, 21 DAT, 20 g/ha, read-out: Growth inhibition rate (%) of SS Measured value
  inhibition at 20 g/ha: 40%
[3]; Sida spinosa, foliar, 504 h, 2.1 to 3.1 leaf stage, 21 DAT, 30 g/ha, read-out: Growth inhibition rate (%) of SS Measured value
  inhibition at 30 g/ha: 50%
[3]; Sida spinosa, foliar, 504 h, 2.1 to 3.1 leaf stage, 21 DAT, read-out: Growth inhibition rate (%) of SS Measured value
  inhibition at 50 g/ha: 70%

## CCc1cccc(C)c1N(C(=O)CCl)[C@@H](C)COC [S-Metolachlor, S-metolachlor]
[1]; 3.5-4.3 leaf stage, 21 DAT, 400 g/ha
  Growth inhibition rate (%) of DS Measured value: 0%
[1]; 4.0-5.0 leaf stage, 14 DAT, 150 g/ha
  Growth inhibition rate (%) of DS Measured value: 0%
[1]; 4.0-5.1 leaf stage, 21 DAT, 300 g/ha
  Growth inhibition rate (%) of DS Measured value: 0%
[1]; 5.0-6.0 leaf stage, 14 DAT, 800 g/ha
  Growth inhibition rate (%) of DS Measured value: 0%
[2]; 3.0-3.5 leaf stage, 21 DAT, 300 g/ha
  Growth inhibition rate (%) of AT Measured value: 0%
[2]; 3.0-3.8 leaf stage, 21 DAT, 400 g/ha
  Growth inhibition rate (%) of AT Measured value: 0%
[2]; 3.0-4.0 leaf stage, 14 DAT, 150 g/ha
  Growth inhibition rate (%) of AT Measured value: 0%
[2]; 4.6-5.3 leaf stage, 14 DAT, 1200 g/ha
  Growth inhibition rate (%) of AT Measured value: 0%
[3]; 3.0-3.3 leaf stage, 21 DAT, 800 g/ha
  Growth inhibition rate (%) of SS Measured value: 20%
